Measurements from the NIST ThermoML archive (doi:10.1016/j.jct.2012.02.023).

Test: xn = mol fraction of the nth substance listed
Details: 101 kPa, Liquid; for speed of sound: Sing-around technique in a fixed-path interferometer; for mass density: Vibrating tube method

CCCC[n+]1cccc(C)c1.F[B-](F)(F)F [1-butyl-3-methylpyridinium tetrafluoroborate] + CCO
Details	mass density, 293.15 K [kg/m3]	mass density, 303.15 K [kg/m3]	mass density, 313.15 K [kg/m3]	mass density, 323.15 K [kg/m3]	speed of sound, 293.15 K [m/s]	speed of sound, 303.15 K [m/s]	speed of sound, 313.15 K [m/s]	speed of sound, 323.15 K [m/s]
x1 = 0.0572	861.245	852.837	844.506	835.724	1206	1177	1146.5	1116.4
x1 = 0.0964	900.833	892.417	884.287	875.61	1239.4	1212.4	1183.6	1155.2
x1 = 0.1466	942.807	934.902	926.796	918.466	1281	1254.5	1228.4	1202
x1 = 0.1964	977.495	969.562	961.571	953.451	1320	1294.8	1269.1	1244.2
x1 = 0.2431	1004.66	996.702	988.807	980.836	1355.1	1330	1304.6	1279.3
x1 = 0.2998	1032.24	1024.76	1016.86	1009.22	1390.6	1365.5	1340.4	1315.4
x1 = 0.3966	1069.96	1062.42	1055	1047.46	1442.7	1417.4	1392.4	1366.2
x1 = 0.4984	1100.02	1092.8	1085.55	1078.03	1484.2	1459.2	1434.3	1409.9
x1 = 0.5931	1122.42	1115.36	1108.06	1100.95	1515.9	1491	1466.4	1442.2
x1 = 0.691	1141.63	–	1127.5	1120.36	1543.7	–	1494.9	1471.2
x1 = 0.8022	1159.85	–	1145.95	1138.97	1566.2	–	1517.2	1493.8
x1 = 0.8923	1172.56	–	1158.84	1151.94	1582.6	–	1534.7	1511.3
x1 = 0.9517	1180.05	–	1166.44	1159.62	1591.7	–	1543.7	1519.5

CCCC[n+]1cccc(C)c1.F[B-](F)(F)F [1-butyl-3-methylpyridinium tetrafluoroborate] + CO
Details	mass density, 293.15 K [kg/m3]	mass density, 303.15 K [kg/m3]	mass density, 313.15 K [kg/m3]	mass density, 323.15 K [kg/m3]	speed of sound, 293.15 K [m/s]	speed of sound, 303.15 K [m/s]	speed of sound, 313.15 K [m/s]	speed of sound, 323.15 K [m/s]
x1 = 0.0481	876.902	868.149	858.994	850.146	1203.1	1173.4	1143.9	1114.7
x1 = 0.1001	940.659	932.121	923.594	915.022	1271	1243.3	1215.7	1188.3
x1 = 0.1548	988.767	980.512	972.213	964.125	1330.9	1304.2	1277.6	1251.7
x1 = 0.2003	1019.3	1011.19	1003.35	995.225	1370	1344	1318.1	1292.4
x1 = 0.2487	1045.53	1037.61	1029.56	1021.63	1407.2	1381.6	1356	1330.8
x1 = 0.297	1066.65	1058.61	1050.84	1042.82	1433.6	1408.1	1382.9	1358
x1 = 0.4013	1101.04	1093.31	1085.48	1077.9	1482.7	1457.9	1433	1415
x1 = 0.4969	1123.82	1116.42	1108.81	1101.29	1514.2	1489.3	1464.9	1443.1
x1 = 0.5974	1142.04	1134.73	1127.47	1120.24	1538.7	1514.1	1489.9	1466.2
x1 = 0.6972	1156.18	1149.17	1142.08	1135	1557.9	1533.5	1509.5	1485.8
x1 = 0.8437	1172.39	1165.51	1158.69	1151.77	1580.4	1556.2	1532.6	1509.2
x1 = 0.8984	1177.43	1170.57	1163.79	1156.96	1587.2	1562.8	1539.3	1516
x1 = 0.9692	1183.29	1176.48	1169.74	1162.98	1595.6	1571.3	1547.5	1524.5

CCCC[n+]1ccc(C)cc1.F[B-](F)(F)F [1-butyl-4-methylpyridinium tetrafluoroborate] + CCO
Details	mass density, 293.15 K [kg/m3]	mass density, 303.15 K [kg/m3]	mass density, 313.15 K [kg/m3]	mass density, 323.15 K [kg/m3]	speed of sound, 293.15 K [m/s]	speed of sound, 303.15 K [m/s]	speed of sound, 313.15 K [m/s]	speed of sound, 323.15 K [m/s]
x1 = 0.0507	854.988	846.802	838.56	830.183	1206.5	1176.7	1147.1	1117.3
x1 = 0.1	904.491	896.578	888.401	880.152	1246.2	1219	1189.9	1162.1
x1 = 0.1971	976.866	969.284	961.403	953.269	1321.9	1296.3	1268.9	1240.4
x1 = 0.2912	1026.69	1019.31	1011.46	1003.86	1384.8	1359.2	1333.8	1308.5
x1 = 0.3903	1066.1	1058.84	1051.3	1043.95	1440.8	1415	1389.7	1364.8
x1 = 0.4876	1096.19	1088.98	1081.75	1074.66	1483.8	1457.9	1432.5	1408
x1 = 0.5825	1119.75	1112.72	1105.58	1098.5	1522.5	1496.8	1471.7	1446.7
x1 = 0.6879	1141.24	1134.29	–	1120.3	1548.5	1525.3	1499.5	1475.8
x1 = 0.7938	1159.02	1152.18	1145.03	1138.28	1576.1	1556	–	1502.9
x1 = 0.8927	1173	1166.2	1159.13	1152.42	1594.2	1569.1	–	1522.3
x1 = 0.9284	1177.54	1170.73	1163.69	1157	1601.9	1579.3	–	1530.5
